# Laboratory results taken from patent publication US11690915.
# Where two headings read alike, the source gives them in different places.
# Legend:
# [1] = 18-membered ring
# [2] = from CC(C)(CO)Cc1c(-c2ccnc(N3CCN(C(=O)OCc4ccccc4)CC3)c2)n(C(C)(C)C#N)c2ccc(-c3csc(C[C@H](NC(=O)OC(C)(C)C)C(=O)N4CCC[C@@H](C(=O)O)N4)n3)cc12; ester bond; 18-membered ring; EDC/HOBt/DIEA; DCM; 1.05 mM
smiles,measurement,setting,value
CCn1c(-c2cc(N3CCN(C(=O)OCc4ccccc4)CC3)cnc2[C@H](C)OC)c2c3cc(ccc31)-c1csc(n1)C[C@H](NC(=O)OC(C)(C)C)C(=O)N1CCC[C@H](N1)C(=O)OCC(C)(C)C2,"ring closure, isolated yield","[1]; from CCn1c(-c2cc(N3CCN(C(=O)OCc4ccccc4)CC3)cnc2[C@H](C)OC)c(CC(C)(C)CO)c2cc(-c3csc(C[C@H](NC(=O)OC(C)(C)C)C(=O)N4CCC[C@@H](C(=O)O)N4)n3)ccc21, ester bond, EDC/HOBt/DIEA, MeCN, 10.3 mM, 25.0 °C",54.8%
CCn1c(-c2cccnc2[C@H](C)OC)c2c3cc(ccc31)-c1csc(n1)[C@@H](OCC(F)F)[C@H](NC(=O)OC(C)(C)C)C(=O)N1CCC[C@H](N1)C(=O)OCC(C)(C)C2,"ring closure, isolated yield","[1]; from CCn1c(-c2cccnc2[C@H](C)OC)c(CC(C)(C)COC(=O)[C@@H]2CCCN(C(=O)[C@@H](NC(=O)OC(C)(C)C)[C@H](OCC(F)F)c3nc(Br)cs3)N2)c2cc(B3OC(C)(C)C(C)(C)O3)ccc21, cc_pd bond, Pd(DtBPF)Cl2/K3PO4, toluene/1,4-dioxane/H2O 3:1:1, 10.0 mM, 60.0 °C, 1.0 h",59%
CO[C@@H](C)c1ncccc1-c1c2c3cc(ccc3n1CCOC1CCOCC1)-c1csc(n1)C[C@H](NC(=O)OC(C)(C)C)C(=O)N1CCC[C@H](N1)C(=O)OCC(C)(C)C2,"ring closure, isolated yield","[1]; from CO[C@@H](C)c1ncccc1-c1c(CC(C)(C)CO)c2cc(-c3csc(C[C@H](NC(=O)OC(C)(C)C)C(=O)N4CCC[C@@H](C(=O)O)N4)n3)ccc2n1CCOC1CCOCC1, ester bond, EDC/HOBt/DIEA, DCM, 7.0 mM",68%
CC1(C)COC(=O)[C@@H]2CCCN(N2)C(=O)[C@@H](NC(=O)OC(C)(C)C)Cc2nc(cs2)-c2ccc3c(c2)c(c(-c2ccnc(N4CCN(C(=O)OCc5ccccc5)CC4)c2)n3C(C)(C)C#N)C1,"ring closure, crude yield",[2],52%
CC1(C)COC(=O)[C@@H]2CCCN(N2)C(=O)[C@@H](NC(=O)OC(C)(C)C)Cc2nc(cs2)-c2ccc3[nH]c(I)c(c3c2)C1,"ring closure, isolated yield","[1]; from CC(C)(CO)Cc1c(I)[nH]c2ccc(-c3csc(C[C@H](NC(=O)OC(C)(C)C)C(=O)N4CCC[C@@H](C(=O)O)N4)n3)cc12, ester bond, EDC/HOBt/DIEA, DCM, 17.6 mM",45.9%
